Tests used:
barnyardgrass [1] = experiment: Test E preemergence; format: in vivo, Echinochloa crus-galli; details: scale 0 to 100
From the text: (§1) Seeds of plant species selected from corn (Zea mays), soybean (Glycine max), lambsquarters (Chenopodium album), poinsettia, wild (wild poinsettia, Euphorbia heterophylla), pigweed, palmer (palmer pigweed, Amaranthus palmeri), waterhemp (common waterhemp, Amaranthus rudis), surinam grass (Brachiaria decumbens), crabgrass, large (large crabgrass, Digitaria sanguinalis), crabgrass, Brazilian (Brazilian crabgrass, Digitaria horizontalis), panicum, fall (fall panicum, Panicum dichotomiflorum), foxtail, giant (giant foxtail, Setaria faberii), foxtail, green (green foxtail, Setaria viridis), goosegrass (Eleusine indica), johnsongrass (Sorghum halepense), ragweed (common ragweed, Ambrosia elatior), barnyardgrass (Echinochloa crus-galli), sandbur (southern sandbur, Cenchrus echinatus), arrowleaf sida (Sida rhombifolia), ryegrass, Italian (Italian ryegrass, Lolium multiflorum), dayflower, VA (Virginia dayflower, Commelina virginica), field bindweed (Convolvulus arvensis), cocklebur (common cocklebur, Xanthium strumarium), morningglory (Ipomoea coccinea), nightshade (eastern black nightshade, Solanum ptycanthum), kochia (Kochia scoparia), nutsedge, yellow (yellow nutsedge, Cyperus esculentus), smartweed (ladysthumb smartweed, Polygonum persicaria), velvetleaf (Abutilon theophrasti), horseweed (Conyza canadensis), and beggarticks (hairy beggarticks, Bidens pilosa), were planted into a silt loam soil and treated preemergence with test chemicals formulated in a non-phytotoxic solvent mixture which included a surfactant.
(§2) At the same time, plants from these crop and weed species and also waterhemp_RES1, (ALS & Triazine resistant common waterhemp, Amaranthus rudis), and waterhemp_RES2, (ALS & HPPD resistant common waterhemp, Amaranthus rudis) were planted in pots containing Sunshine Redi-Earth® planting medium comprising spaghnum peat moss, vermiculite, starter nutrients and dolomitic limestone were treated with postemergence applications of test chemicals formulated in the same manner. Plants ranged in height from 2 to 18 cm for postemergence treatments (1- to 4-leaf stage). Treated plants and controls were maintained in a greenhouse for 14 to 21 d, after which time all species were compared to controls and visually evaluated. Plant response ratings, summarized in Table E, are based on a scale of 0 to 100 where 0 is no effect and 100 is complete control. A dash (-) response means no test result.

sandbur [2] = experiment: Test E postemergence; format: in vivo, Cenchrus echinatus; details: scale 0 to 100
From the text: as §1, §2

corn = experiment: Test E postemergence; format: in vivo, Zea mays; details: scale 0 to 100
From the text: as §1, §2

ryegrass, Italian = experiment: Test E postemergence; format: in vivo, Lolium multiflorum; details: scale 0 to 100
From the text: as §1, §2

foxtail, giant = experiment: Test E preemergence; format: in vivo, Setaria faberii; details: scale 0 to 100
From the text: as §1, §2

kochia [3] = experiment: Test E preemergence; format: in vivo, Kochia scoparia; details: scale 0 to 100
From the text: as §1, §2

surinam grass = experiment: Test E preemergence; format: in vivo, Brachiaria decumbens; details: scale 0 to 100
From the text: as §1, §2

panicum, fall = experiment: Test E postemergence; format: in vivo, Panicum dichotomiflorum; details: scale 0 to 100
From the text: as §1, §2

barnyardgrass [4] = experiment: Test E postemergence; format: in vivo, Echinochloa crus-galli; details: scale 0 to 100
From the text: as §1, §2

sandbur [5] = experiment: Test E preemergence; format: in vivo, Cenchrus echinatus; details: scale 0 to 100
From the text: as §1, §2

crabgrass, Brazilian = experiment: Test E preemergence; format: in vivo, Digitaria horizontalis; details: Brazil, scale 0 to 100
From the text: as §1, §2

morningglory [6] = experiment: Test E preemergence; format: in vivo, Ipomoea coccinea; details: scale 0 to 100
From the text: as §1, §2

pigweed, palmer = experiment: Test E postemergence; format: in vivo, Amaranthus palmeri; details: scale 0 to 100
From the text: as §1, §2

beggarticks = experiment: Test E preemergence; format: in vivo, Bidens pilosa; details: scale 0 to 100
From the text: as §1, §2

morningglory [7] = experiment: Test C preemergence; format: in vivo, Ipomoea coccinea; details: for Plant response rating (scale of 0 to 100 where 0 is no effect and 100 is complete control): Morningglory, preemergence; for Morningglory plant response rating (0 to 100): Preemergence, visual rating after 13 to 15 d
From the text: Seeds of plant species selected from blackgrass (Alopecurus myosuroides), ryegrass, Italian (Italian ryegrass, Lolium multiflorum), wheat (winter wheat, Triticum aestivum), galium (catchweed bedstraw, Galium aparine), corn (Zea mays), crabgrass, large (large crabgrass, Digitaria sanguinalis), foxtail, giant, (giant foxtail, Setaria faberii), johnsongrass (Sorghum halepense), lambsquarters (Chenopodium album), morningglory (Ipomoea coccinea), nutsedge, yellow (yellow nutsedge, Cyperus esculentus), pigweed (Amaranthus retroflexus), ragweed (common ragweed, Ambrosia elatior), soybean (Glycine max), barnyardgrass (Echinochloa crus-galli), oilseed rape (Brassica napus), waterhemp (common waterhemp, Amaranthus rudis), and velvetleaf (Abutilon theophrasti) were planted into a blend of loam soil and sand and treated preemergence with test chemicals formulated in a non-phytotoxic solvent mixture which included a surfactant. At the same time, plants selected from these crop and weed species and also chickweed (common chickweed, Stellaria media), oat, wild (wild oat, Avena fatua), and kochia (Kochia scoparia), were planted in pots containing Sunshine Redi-Earth® planting medium comprising spaghnum peat moss, vermiculite, starter nutrients and dolomitic limestone and treated with postemergence applications of test chemicals formulated in the same manner. Plants ranged in height from 2 to 18 cm (1- to 4-leaf stage) for postemergence treatments. […] A dash (-) response means no test result.

kochia [8] = experiment: Test E postemergence; format: in vivo, Kochia scoparia; details: scale 0 to 100
From the text: as §1, §2

SMILES: CCc1nc(-c2ccc(C(F)(F)F)cc2)nn1Cc1ccnc(C(F)(F)F)c1 [Compound 1, 4-[[5-ethyl-3-[4-(trifluoromethyl)phenyl]-1H-1,2,4-triazol-1-yl]methyl]-2-(trifluoromethyl)pyridine]
- Plant response rating (barnyardgrass [1]; 16 g ai/ha): 0
- Plant response rating (barnyardgrass [1]; 31 g ai/ha): 10
- Plant response rating (barnyardgrass [1]; 62 g ai/ha): 30
- Plant response rating (barnyardgrass [1]; 125 g ai/ha): 30
- Plant response rating (barnyardgrass [1]; 250 g ai/ha): 50
- Plant response rating (sandbur [2]; 16 g ai/ha): 10
- Plant response rating (sandbur [2]; 31 g ai/ha): 15
- Plant response rating (sandbur [2]; 62 g ai/ha): 15
- Plant response rating (sandbur [2]; 125 g ai/ha): 20
- Plant response rating (sandbur [2]; 250 g ai/ha): 20
- Plant response rating (corn; 16 g ai/ha): 5
- Plant response rating (corn; 31 g ai/ha): 5
- Plant response rating (corn; 62 g ai/ha): 5
- Plant response rating (corn; 125 g ai/ha): 10
- Plant response rating (corn; 250 g ai/ha): 10
- Plant response rating (ryegrass, Italian; 16 g ai/ha): 0
- Plant response rating (ryegrass, Italian; 31 g ai/ha): 10
- Plant response rating (ryegrass, Italian; 62 g ai/ha): 10
- Plant response rating (ryegrass, Italian; 125 g ai/ha): 15
- Plant response rating (ryegrass, Italian; 250 g ai/ha): 25
- Plant response rating (foxtail, giant; 16 g ai/ha): 20
- Plant response rating (foxtail, giant; 31 g ai/ha): 30
- Plant response rating (foxtail, giant; 62 g ai/ha): 80
- Plant response rating (foxtail, giant; 125 g ai/ha): 80
- Plant response rating (foxtail, giant; 250 g ai/ha): 98
- Plant response rating (kochia [3]; 16 g ai/ha): 20
- Plant response rating (kochia [3]; 31 g ai/ha): 60
- Plant response rating (kochia [3]; 62 g ai/ha): 80
- Plant response rating (kochia [3]; 125 g ai/ha): 90
- Plant response rating (kochia [3]; 250 g ai/ha): 95
- Plant response rating (surinam grass; 16 g ai/ha): 0
- Plant response rating (surinam grass; 31 g ai/ha): 0
- Plant response rating (surinam grass; 62 g ai/ha): 10
- Plant response rating (surinam grass; 125 g ai/ha): 20
- Plant response rating (surinam grass; 250 g ai/ha): 20
- Plant response rating (panicum, fall; 16 g ai/ha): 10
- Plant response rating (panicum, fall; 31 g ai/ha): 20
- Plant response rating (panicum, fall; 62 g ai/ha): 20
- Plant response rating (panicum, fall; 125 g ai/ha): 20
- Plant response rating (panicum, fall; 250 g ai/ha): 30
- Plant response rating (barnyardgrass [4]; 16 g ai/ha): 10
- Plant response rating (barnyardgrass [4]; 31 g ai/ha): 10
- Plant response rating (barnyardgrass [4]; 62 g ai/ha): 15
- Plant response rating (barnyardgrass [4]; 125 g ai/ha): 20
- Plant response rating (barnyardgrass [4]; 250 g ai/ha): 30
- Plant response rating (sandbur [5]; 16 g ai/ha): 0
- Plant response rating (sandbur [5]; 31 g ai/ha): 10
- Plant response rating (sandbur [5]; 62 g ai/ha): 20
- Plant response rating (sandbur [5]; 125 g ai/ha): 40
- Plant response rating (sandbur [5]; 250 g ai/ha): 50
- Plant response rating (crabgrass, Brazilian; 62 g ai/ha): 98
- Plant response rating (crabgrass, Brazilian; 125 g ai/ha): 98
- Plant response rating (crabgrass, Brazilian; 250 g ai/ha): 100
- Plant response rating (morningglory [6]; 16 g ai/ha): 10
- Plant response rating (morningglory [6]; 31 g ai/ha): 40
- Plant response rating (morningglory [6]; 125 g ai/ha): 60
- Plant response rating (morningglory [6]; 250 g ai/ha): 100
- Plant response rating (pigweed, palmer; 16 g ai/ha): 80
- Plant response rating (pigweed, palmer; 31 g ai/ha): 90
- Plant response rating (pigweed, palmer; 62 g ai/ha): 90
- Plant response rating (pigweed, palmer; 125 g ai/ha): 100
- Plant response rating (pigweed, palmer; 250 g ai/ha): 100
- Plant response rating (beggarticks; 16 g ai/ha): 0
- Plant response rating (beggarticks; 31 g ai/ha): 0
- Plant response rating (beggarticks; 62 g ai/ha): 0
- Plant response rating (beggarticks; 125 g ai/ha): 20
- Plant response rating (beggarticks; 250 g ai/ha): 60
- Plant response rating (scale of 0 to 100 where 0 is no effect and 100 is complete control) (morningglory [7]; 125 g ai/ha): 55
- Plant response rating (scale of 0 to 100 where 0 is no effect and 100 is complete control) (morningglory [7]; 250 g ai/ha): 90
- Morningglory plant response rating (0 to 100) (morningglory [7]; 31 g ai/ha): 20
- Morningglory plant response rating (0 to 100) (morningglory [7]; 62 g ai/ha): 55

SMILES: COc1nc(-c2ccc(Cl)cc2)nn1Cc1ccnc(C(F)(F)F)c1 [Compound 28]
- Plant response rating (sandbur [2]; 31 g ai/ha): 20
- Plant response rating (sandbur [2]; 62 g ai/ha): 30
- Plant response rating (sandbur [2]; 125 g ai/ha): 30
- Plant response rating (sandbur [2]; 250 g ai/ha): 40
- Plant response rating (corn; 31 g ai/ha): 15
- Plant response rating (corn; 62 g ai/ha): 20
- Plant response rating (corn; 125 g ai/ha): 20
- Plant response rating (corn; 250 g ai/ha): 30
- Plant response rating (ryegrass, Italian; 31 g ai/ha): 10
- Plant response rating (ryegrass, Italian; 62 g ai/ha): 20
- Plant response rating (ryegrass, Italian; 125 g ai/ha): 25
- Plant response rating (ryegrass, Italian; 250 g ai/ha): 30
- Plant response rating (panicum, fall; 31 g ai/ha): 15
- Plant response rating (panicum, fall; 62 g ai/ha): 20
- Plant response rating (panicum, fall; 125 g ai/ha): 20
- Plant response rating (panicum, fall; 250 g ai/ha): 20
- Plant response rating (barnyardgrass [4]; 31 g ai/ha): 20
- Plant response rating (barnyardgrass [4]; 62 g ai/ha): 25
- Plant response rating (barnyardgrass [4]; 125 g ai/ha): 40
- Plant response rating (barnyardgrass [4]; 250 g ai/ha): 40
- Plant response rating (pigweed, palmer; 31 g ai/ha): 100
- Plant response rating (pigweed, palmer; 62 g ai/ha): 90
- Plant response rating (pigweed, palmer; 125 g ai/ha): 90
- Plant response rating (pigweed, palmer; 250 g ai/ha): 95
- Plant response rating (kochia [8]; 31 g ai/ha): 90
- Plant response rating (kochia [8]; 62 g ai/ha): 95
- Plant response rating (kochia [8]; 125 g ai/ha): 95
- Plant response rating (kochia [8]; 250 g ai/ha): 95
